Measurements reported in publication PMC10301845, “Characterization of a Novel M4 PAM PET Radioligand [11C]PF06885190 in Nonhuman Primates (NHP)” (Molecules, 2023).

Test system: M4
Assay: PET measurements of brain distribution in NHP (SUV, VT by 1-TC and Logan)
Assay type: in vivo, cynomolgus monkey (Macaca fascicularis)
Parameters: VT 1-TC Baseline: unit not given here
Conditions: for VT 1-TC %Decrease / VT Logan %Decrease: baseline vs pretreatment with CVL-231; for VT 1-TC Pretreatment / VT Logan Pretreatment: pretreatment with CVL-231
Experimental: Two male cynomolgus monkeys (Macaca fascicularis, NHP) M1 and M2, with body weight of 7.8 kg and 7.1 kg, respectively, were studied on three different experimental days for a total of six PET measurements. Both NHPs underwent two PET measurements on the same day. The first PET measurement was performed with [^11C]PF06885190, followed by the second PET measurement after pretreatment with either CVL-231 or donepezil. CVL-231 (0.24 mg/kg, IV) was administrated 10 min before the administration of [^11C]PF06885190 via a constant infusion (0.0027 mg/min/kg) throughout the whole PET measurement. Donepezil (0.25 mg/kg) was administrated 30 min before the administration of [^11C]PF06885190. Both NHPs were supplied by the Astrid Fagraeus Laboratory of the Swedish Institute for Infectious Disease Control (SMI), Solna, Sweden. The study was approved by the Animal Ethics Committee of the Swedish Animal Welfare Agency and was performed according to “Guidelines for planning, conducting and documenting experimental research” (Dnr 4820/06-600) of the KI as well as the “Guide for the Care and Use of Laboratory Animals” [26]. Anesthesia was initiated at Astrid Fagraeus Laboratory either by intramuscular injection of ketamine hydrochloride (10 mg/kg) and maintained by the administration of a mixture of isoflurane, oxygen, and medical air through endotracheal intubation, or by intravenous infusion of a mixture of ketamine hydrochloride (4 mg/kg/h) and xylazine hydrochloride (0.4 mg/kg/h). To fix the position of the head of the NHP during the course of whole PET measurement, a prototype device was used. Body temperature was maintained by a Bair Hugger-Model 505 (Arizant Health Care Inc., Eden Prairie, MN 55344, USA) and monitored by an oral thermometer. ECG, heart rate, respiratory rate and oxygen saturation were continuously monitored throughout the experiments and blood pressure was monitored every 15 min.
All the PET measurements in this study were performed by using a High Resolution Research Tomograph (HRRT) (Siemens Molecular Imaging) scanner. The corresponding in-plane resolution with OP-3D-OSEM PSF was 1.5 mm full width at half-maximum (FWHM) at the center of the field of view (FOV) and 2.4 mm at 10 cm off-center directions. List-mode data were acquired continuously for 123 min immediately after intravenous injection of [^11C]PF06885190. Images were reconstructed by the ordinary Poisson-3D-ordered subset expectation maximization (OP-3D-OSEM) algorithm. Prior to each PET acquisition, a 6 min transmission scan was performed, using a single ^137Cs source, for attenuation and scatter correction. Brain magnetic resonance imaging was performed in a 1.5-T GE Signa system (General Electric, Milwaukee, WI, USA). A T1-weighted image was obtained for co-registration with PET and delineation of anatomic brain regions. The T1 sequence was a 3D spoiled gradient-recalled (SPGR) protocol with the following settings: repetition time (TR) 21 ms, flip angle 35°; FOV 12.8; matrix 256 × 256 × 128; 128 × 1.0 mm slices; 2 NEX. The sequence was optimized for trade-off between a minimum of scanning time and a maximum of spatial resolution and contrast between gray and white matter.
For both NHPs, the radioligand [^11C]PF06885190 was administrated with an intravenous (i.v.) injection. The regions of interests (ROIs) were delineated manually on MRI images of each NHP for the whole brain, cerebellum, caudate, putamen, thalamus, frontal cortex, temporal cortex, hippocampus, anterior cingulate cortex, posterior cingulate cortex, parietal cortex, occipital cortex, amygdala, ventral striatum and insula. The summed PET images of the whole duration were co-registered to the MRI image of the individual NHP. After applying the co-registration parameters to the dynamic PET data, the time-activity curves (TACs) of brain regions were generated for each PET measurement. Standardized uptake value (SUV) was calculated for each brain region. […]

[1] = anterior cingulate cortex, baseline
[2] = posterior cingulate cortex, baseline

`Cc1nc(N[11CH3])c2c(c1C)CN(C(=O)C[C@H]1C[C@@H]1c1ccc(F)nc1)C2` [[^11C]PF06885190] was tested. Which “Change of VT from baseline” value (after pretreatment with M4 PAM CVL-231) did it give?
The value was “around −10%”.

And the “VT 1-TC Baseline” value (amygdala, baseline)?
Its value is 2.290.

What about the “VT Logan Baseline” value (amygdala, baseline) of the same molecule?
Its value is 2.549.

And the “VT 1-TC %Decrease” value (amygdala)?
The value was 6.7%.

What about the “VT Logan %Decrease” value (amygdala) of the same molecule?
The value was 9.6%.

And the “VT 1-TC Pretreatment” value (amygdala)?
The value was 2.137.

And the “VT Logan Pretreatment” value (amygdala)?
The value was 2.304.

And the “VT 1-TC Baseline” value [1]?
Its value is 2.245.

What about the “VT Logan Baseline” value [1] of the same molecule?
Its value is 2.503.

What about the “VT 1-TC %Decrease” value (anterior cingulate cortex) of the same molecule?
The value was 9.6%.

And the “VT Logan %Decrease” value (anterior cingulate cortex)?
The value was 8.4%.

And the “VT 1-TC Pretreatment” value (anterior cingulate cortex)?
The value was 2.030.

What about the “VT Logan Pretreatment” value (anterior cingulate cortex) of the same molecule?
The value was 2.293.

And the “VT 1-TC %Decrease” value (average of brain regions)?
The value was 10.3%.

What about the “VT Logan %Decrease” value (average of brain regions) of the same molecule?
Its value is 12%.

What about the “Whole brain uptake at peak” value (baseline conditions, i.v.) of the same molecule?
The value was 2.0–4.1 SUV.

What about the “wash-out: time to drop to half of the peak” value (brain, baseline) of the same molecule?
The value was “around 10 min”.

What about the “VT 1-TC Baseline” value (caudate, baseline) of the same molecule?
The value was 2.388.

What about the “VT Logan Baseline” value (caudate, baseline) of the same molecule?
The value was 2.683.

What about the “VT 1-TC %Decrease” value (caudate) of the same molecule?
The value was 1.3%.

What about the “VT Logan %Decrease” value (caudate) of the same molecule?
The value was 7.8%.

What about the “VT 1-TC Pretreatment” value (caudate) of the same molecule?
Its value is 2.357.

What about the “VT Logan Pretreatment” value (caudate) of the same molecule?
Its value is 2.475.

What about the “VT 1-TC Baseline” value (cerebellum, baseline) of the same molecule?
Its value is 2.205.

And the “VT Logan Baseline” value (cerebellum, baseline)?
The value was 3.055.

And the “VT 1-TC %Decrease” value (cerebellum)?
Its value is 15.0%.

What about the “VT Logan %Decrease” value (cerebellum) of the same molecule?
The value was 21.4%.

What about the “VT 1-TC Pretreatment” value (cerebellum) of the same molecule?
Its value is 1.875.

And the “VT Logan Pretreatment” value (cerebellum)?
The value was 2.401.

And the “change of VT after administration of donepezil” value (donepezil 0.25 mg/kg 30 min before radioligand)?
The value was “No significant change”.

And the “VT 1-TC Baseline” value (frontal cortex, baseline)?
The value was 2.521.

And the “VT Logan Baseline” value (frontal cortex, baseline)?
The value was 2.940.

What about the “VT 1-TC %Decrease” value (frontal cortex) of the same molecule?
Its value is 15.1%.

And the “VT Logan %Decrease” value (frontal cortex)?
Its value is 18.6%.

And the “VT 1-TC Pretreatment” value (frontal cortex)?
Its value is 2.140.

What about the “VT Logan Pretreatment” value (frontal cortex) of the same molecule?
Its value is 2.394.

And the “VT 1-TC Baseline” value (hippocampus, baseline)?
The value was 2.361.

What about the “VT Logan Baseline” value (hippocampus, baseline) of the same molecule?
Its value is 2.595.

And the “VT 1-TC %Decrease” value (hippocampus)?
The value was 9.1%.

What about the “VT Logan %Decrease” value (hippocampus) of the same molecule?
Its value is 9.8%.

What about the “VT 1-TC Pretreatment” value (hippocampus) of the same molecule?
Its value is 2.146.

And the “VT Logan Pretreatment” value (hippocampus)?
Its value is 2.341.

What about the “VT 1-TC Baseline” value (insula, baseline) of the same molecule?
The value was 2.617.

What about the “VT Logan Baseline” value (insula, baseline) of the same molecule?
The value was 2.811.

And the “VT 1-TC %Decrease” value (insula)?
Its value is 11.6%.

And the “VT Logan %Decrease” value (insula)?
The value was 6.4%.

What about the “VT 1-TC Pretreatment” value (insula) of the same molecule?
Its value is 2.314.

What about the “VT Logan Pretreatment” value (insula) of the same molecule?
The value was 2.631.

What about the “VT 1-TC Baseline” value (occipital cortex, baseline) of the same molecule?
Its value is 2.871.

What about the “VT Logan Baseline” value (occipital cortex, baseline) of the same molecule?
Its value is 3.534.

What about the “VT 1-TC %Decrease” value (occipital cortex) of the same molecule?
The value was 14.2%.

And the “VT Logan %Decrease” value (occipital cortex)?
The value was 18.7%.

What about the “VT 1-TC Pretreatment” value (occipital cortex) of the same molecule?
The value was 2.462.

And the “VT Logan Pretreatment” value (occipital cortex)?
The value was 2.873.

And the “VT 1-TC Baseline” value (parietal cortex, baseline)?
The value was 2.515.

What about the “VT Logan Baseline” value (parietal cortex, baseline) of the same molecule?
The value was 2.709.

What about the “VT 1-TC %Decrease” value (parietal cortex) of the same molecule?
The value was 16.1%.

What about the “VT Logan %Decrease” value (parietal cortex) of the same molecule?
The value was 14.5%.

And the “VT 1-TC Pretreatment” value (parietal cortex)?
Its value is 2.109.

And the “VT Logan Pretreatment” value (parietal cortex)?
Its value is 2.316.

What about the “VT 1-TC Baseline” value [2] of the same molecule?
The value was 2.384.

And the “VT Logan Baseline” value [2]?
The value was 2.723.

What about the “VT 1-TC %Decrease” value (posterior cingulate cortex) of the same molecule?
Its value is 17.7%.

And the “VT Logan %Decrease” value (posterior cingulate cortex)?
Its value is 18.3%.

What about the “VT 1-TC Pretreatment” value (posterior cingulate cortex) of the same molecule?
Its value is 1.963.

And the “VT Logan Pretreatment” value (posterior cingulate cortex)?
Its value is 2.225.

What about the decrease after pretreatment (pretreatment with specific M4 ligand CVL-231) of the same molecule?
The decrease after pretreatment was 10%.

What about the “VT 1-TC Baseline” value (putamen, baseline) of the same molecule?
The value was 2.632.

What about the “VT Logan Baseline” value (putamen, baseline) of the same molecule?
Its value is 3.006.

And the “VT 1-TC %Decrease” value (putamen)?
The value was 3.5%.

And the “VT Logan %Decrease” value (putamen)?
Its value is 7.0%.

What about the “VT 1-TC Pretreatment” value (putamen) of the same molecule?
Its value is 2.539.

What about the “VT Logan Pretreatment” value (putamen) of the same molecule?
The value was 2.795.

What about the “VT 1-TC Baseline” value (temporal cortex, baseline) of the same molecule?
Its value is 2.690.

What about the “VT Logan Baseline” value (temporal cortex, baseline) of the same molecule?
The value was 2.992.

And the “VT 1-TC %Decrease” value (temporal cortex)?
Its value is 11.4%.

What about the “VT Logan %Decrease” value (temporal cortex) of the same molecule?
Its value is 9.2%.

And the “VT 1-TC Pretreatment” value (temporal cortex)?
The value was 2.383.

What about the “VT Logan Pretreatment” value (temporal cortex) of the same molecule?
Its value is 2.717.

What about the “VT 1-TC Baseline” value (thalamus, baseline) of the same molecule?
Its value is 2.496.

And the “VT Logan Baseline” value (thalamus, baseline)?
Its value is 2.778.

What about the “VT 1-TC %Decrease” value (thalamus) of the same molecule?
The value was 6.4%.

What about the “VT Logan %Decrease” value (thalamus) of the same molecule?
Its value is 14.8%.

And the “VT 1-TC Pretreatment” value (thalamus)?
The value was 2.337.

And the “VT Logan Pretreatment” value (thalamus)?
The value was 2.367.

And the “VT 1-TC Baseline” value (ventral striatum, baseline)?
The value was 2.305.

What about the “VT Logan Baseline” value (ventral striatum, baseline) of the same molecule?
The value was 2.398.

What about the “VT 1-TC %Decrease” value (ventral striatum) of the same molecule?
The value was 7.0%.

And the “VT Logan %Decrease” value (ventral striatum)?
The value was 3.1%.

What about the “VT 1-TC Pretreatment” value (ventral striatum) of the same molecule?
Its value is 2.144.

And the “VT Logan Pretreatment” value (ventral striatum)?
The value was 2.324.
